From ChEMBL document CHEMBL3576791, “Rational Design of a Novel AMPA Receptor Modulator through a Hybridization Approach” (ACS Med Chem Lett, 2015)
Activity calls are given as the source filed them. The rule behind the calls is not given here.

Columns and labels:
Type in all cases: cell-based
[1] = target: Glutamate receptor 2 (Homo sapiens) (UniProt P42262); assay: Modulation of GluA2 flip receptor (unknown origin) transfected in HEK293 cells assessed as deactivation of channel at 30 uM by electrophysiology
[2] = target: Glutamate receptor 2 (Homo sapiens) (UniProt P42262); assay: Modulation of GluA2 flop receptor (unknown origin) transfected in HEK293 cells assessed as desensitization measured as increase in steady-state current at 30 uM by electrophysiology
[3] = target: Glutamate receptor 2 (Homo sapiens) (UniProt P42262); assay: Modulation of GluA2 flip receptor (unknown origin) transfected in HEK293 cells assessed as desensitization measured as increase in steady-state current at 30 uM by electrophysiology
[4] = target: Glutamate receptor 2 (Homo sapiens) (UniProt P42262); assay: Modulation of GluA2 flop receptor (unknown origin) transfected in HEK293 cells assessed as deactivation of channel at 30 uM by electrophysiology
[5] = target: Glutamate receptor 2 (Homo sapiens) (UniProt P42262); assay: Modulation of GluA2 flip receptor (unknown origin) transfected in HEK293 cells assessed as deactivation of channel at 100 uM by electrophysiology
[6] = target: Glutamate receptor 2 (Homo sapiens) (UniProt P42262); assay: Modulation of GluA2 flip receptor (unknown origin) transfected in HEK293 cells assessed as desensitization measured as increase in steady-state current at 100 uM by electrophysiology
[7] = target: Glutamate receptor 2 (Homo sapiens) (UniProt P42262); assay: Modulation of GluA2 flop receptor (unknown origin) transfected in HEK293 cells assessed as desensitization measured as increase in steady-state current at 100 uM by electrophysiology
[8] = target: Glutamate receptor 2 (Homo sapiens) (UniProt P42262); assay: Modulation of GluA2 flop receptor (unknown origin) transfected in HEK293 cells assessed as deactivation of channel at 100 uM by electrophysiology

Glutamate receptor 2 (Homo sapiens), sequence (P42262 whole entry): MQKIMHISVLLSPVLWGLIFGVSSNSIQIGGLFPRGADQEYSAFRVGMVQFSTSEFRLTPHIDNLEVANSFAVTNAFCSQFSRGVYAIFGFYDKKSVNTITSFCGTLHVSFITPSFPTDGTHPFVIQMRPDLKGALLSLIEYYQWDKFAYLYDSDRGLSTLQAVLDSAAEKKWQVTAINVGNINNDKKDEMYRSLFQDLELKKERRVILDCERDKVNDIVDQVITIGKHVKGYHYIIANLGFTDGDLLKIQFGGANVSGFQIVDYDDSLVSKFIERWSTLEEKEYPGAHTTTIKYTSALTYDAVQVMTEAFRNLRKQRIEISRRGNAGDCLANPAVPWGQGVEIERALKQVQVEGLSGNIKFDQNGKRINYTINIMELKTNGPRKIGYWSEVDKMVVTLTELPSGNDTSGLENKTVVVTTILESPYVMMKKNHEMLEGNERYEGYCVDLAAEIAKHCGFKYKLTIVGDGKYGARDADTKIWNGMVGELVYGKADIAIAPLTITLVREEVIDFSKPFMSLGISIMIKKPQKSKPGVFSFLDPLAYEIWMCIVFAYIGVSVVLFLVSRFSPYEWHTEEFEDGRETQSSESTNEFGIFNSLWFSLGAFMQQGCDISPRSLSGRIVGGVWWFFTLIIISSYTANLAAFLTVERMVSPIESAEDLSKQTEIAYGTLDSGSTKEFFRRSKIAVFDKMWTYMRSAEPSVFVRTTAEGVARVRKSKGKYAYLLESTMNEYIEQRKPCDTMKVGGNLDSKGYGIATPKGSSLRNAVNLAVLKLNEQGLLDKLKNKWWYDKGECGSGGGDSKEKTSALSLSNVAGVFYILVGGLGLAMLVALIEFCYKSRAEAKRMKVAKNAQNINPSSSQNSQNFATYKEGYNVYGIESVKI

Activity [1]	Activity [4]	Activity [5]	Activity [8]	SMILES	Activity [2]	Activity [3]	Activity [6]	Activity [7]
inactive	inactive			O=S1(=O)c2ccc(Cn3cc(CO)c(C(F)(F)F)n3)cc2OC[C@@H]2CCCN21	Active	Active		
inactive	inactive			O=C1c2ccc(-n3cc(CO)c(C(F)(F)F)n3)cc2OC[C@@H]2CCCN12	inactive	inactive		
		Active	Active	NC(=O)c1c(NC(=O)Cn2cc(CO)c(C(F)(F)F)n2)sc2ccccc12			Active	Active
Active	inactive			O=C1c2ccc(Cn3cc(CO)c(C(F)(F)F)n3)cc2OC[C@@H]2CCCN12	Active	Active		
